Results taken from patent US7615361B2, “Toxicity screening methods” (Ceetox, Inc., priority 2006, dated 2009).
Values after ≈ are worked out from the molar mass of the structure shown. Where two headings read alike, the source gives them in different places.

How the values were obtained:
MTT reduction = type: cell-based, rat
Method: (§1) One test compound (Compound A) was received as dry powder and evaluated for potential cytotoxicity in a battery of in vitro assays. The compound was tested using both rat cardiomyocytes (CM) from rat neonates and a rat hepatoma (H4IIE) cell line. […] The cell supernatant or the cells themselves were harvested for biochemical analysis. General cytotoxicity was evaluated by monitoring membrane integrity, mitochondrial function, cell proliferation, oxidative stress, and apoptosis. In addition, interaction with P-glycoprotein (PgP) on H4IIE cells and solubility of the test compound were also assessed. The means of each exposure group (n=3-7) were calculated for each assay performed.
Tetrazolium Dye Reduction: 3-[4,5-dimethylthiazol-2-yl]

Intracellular ATP levels = type: cell-based, rat
Method: as §1
Intracellular ATP Levels: Cellular Adenosine triphosphate (ATP) was determined with an assay based on a reaction between ATP+D-luciferin+oxygen catalyzed by luciferase to yield Oxyluciferin+AMP+PPi+CO2+light. The emitted light is proportional to the amount of ATP present. […] In addition, a unique cell lysis reagent inhibits endogenous ATPases and therefore stabilizes cellular ATP by preventing its degradation to ADP. ATP is present in all-living cells and declines rapidly upon cell death. In addition, this assay in combination with the MTT assay provides an indicator of mitochondrial activity and energy status of the cell.
Plates were analyzed immediately or stored at −20° C. until needed. On the day of analysis, the plates were thawed and calibration curve prepared with ATP in the same liquid matrix as samples. ATP was quantified by adding ATP substrate solution and then reading luminescence on a Packard Fusion Luminescence or equivalent plate reader.
Intracellular ATP Levels: ATP levels in treated cells could be determined by using the regression coefficients obtained from the linear regression analysis of the calibration curve. Thus, values could be expressed as pmoles ATP/million cells. Background corrected luminescence was used to determine percent change relative to controls by dividing treated values by control values and multiplying by 100.

H4IIE cells = assay: Predicted Ctox from Tox-Panel; type: cell-based, rat; settings: 24 HR, estimated sustained plasma concentration where toxicity would be expected in vivo
Method: Once all data for a given cluster of assays are received, the data are analyzed to obtain a detailed profile of the compound's toxicity. For example, most conveniently, the data are collated over a dose response range on a single graph. In such an embodiment, the measurement evaluated for each parameter (i.e., each indicator of cell health) at any given concentration is plotted as a percentage of a control measurement obtained in the absence of the compound. However, it should be noted that the data need not be plotted on a single graph, so long as all the parameters are analyzed collectively to yield detailed information of the effects of the concentration of the compound on the different parameters to yield an overall toxicity profile. As set forth below, this overall toxicity profile will facilitate a determination of a plasma concentration Ctox that is predicted to be toxic in vivo. Ctox represents an estimate of the sustained plasma concentration in vivo that would result in toxicity, such as hepatotoxicity or hematopoietic toxicity.
Studies such as these indicate that a preferred concentration for setting Ctox is the highest concentration at which there is no observed effect on any of the indicators being measured in the cluster analysis, especially a 24-hour cluster analysis. […] It will be apparent that 24 hour assays are more time-effective, and consequently, the 24 hour NOEL/Ctox represents a preferred data point to select as Ctox in a CATS assay. It will also be apparent that, with further time studies, it may be possible to select an equally suitable Ctox at other CATS assay time points (e.g., between 24 and 72 hours, or less than 24 hours).
In certain embodiments, the predicting comprises performing concentration response analyses of measurements from at least three separate assays that are employed in the cluster analysis. For example, in the cell health cluster, such predicting will involve monitoring the concentration response effect of the compound on a first health indicator which monitors cellular replication, a second cell health indicator which monitors mitochondrial function, and a third cell health indicator which monitors membrane integrity. Of course, it is understood that fourth, fifth, sixth or more cell health indicators also may be employed. From these concentration response analyses, the highest concentration of the chemical compound at which a measurable toxic effect of the chemical compound is not observable, i.e. NOEL, is determined and the Ctox is identified as the concentration that correlates to the NOEL. In choosing the concentrations of the compound for analysis, one of skill in the art should devise a dose response regimen which is selected to provide an indication of cell health at concentrations of at least two concentration values higher than the Ctox concentration.
The Ctox (H4IIE) value was developed using 24 hr in vitro toxicity data and was validated by retrospectively evaluating compounds across different classes of drugs in 14-day rat studies in which compounds were administered on a daily basis and pharmacokinetic data was available. […] Thus, Ctox values are only determined for the 24 hr in vitro results. The 6 hr toxicity analyses are typically not performed but are beneficial for interpretation of results when compound toxicity is high (e.g., Ctox≦20 μM).

[1] = Solubility in culture medium (nephelometry); type: physicochemical
Method: Solubility: The test compounds were prepared in DMSO and the appropriate amounts were then added to complete medium containing 10% bovine serum […] at 37° C. The samples were evaluated using a light scattering technique and a Nephaloskan instrument.
Solubility Assay: The test compounds were prepared in DMSO and the appropriate amounts were then added to complete medium containing 10% bovine serum at 37° C. The samples were evaluated using a light scattering technique and a Nephaloskan instrument.

P-glycoprotein (PgP) = P-glycoprotein (PgP) binding: MTT with and without cyclosporin A; type: cell-based, rat; settings: for % Difference: 1-20% low, 20-50% moderate, 50-100% high PgP interaction
Method: Several antiviral drugs are substrates for P-glycoprotein transporter (PgP).
P-glycoprotein (PgP) transport proteins are expressed in the bile canalicular membrane of normal liver. However, in neoplastic cells it is not uncommon to have expression of this transporter system in the plasma membrane. […] The existence of these transporters was evaluated with the Calcein-AM assay and with known substrates of PgP.

[2] = 37 °C, plasma or biological fluid, kinetic from dmso stock, dosing medium with 20% serum, 37° C., CM 24 HR, read-out: Highest Soluble Concentration Tested
[3] = 37 °C, plasma or biological fluid, kinetic from dmso stock, dosing medium with 20% serum, 37° C., H4IIE 24 HR, read-out: Highest Soluble Concentration Tested
[4] = H4IIE 24 HR, MTT, 50 μM, with cyclosporin A
[5] = H4IIE 24 HR, MTT, 50 μM, without CSA
[6] = dosing medium with 20% serum, 37° C., CM 24 HR, read-out: Highest Soluble Concentration Tested
[7] = dosing medium with 20% serum, 37° C., H4IIE 24 HR, read-out: Highest Soluble Concentration Tested

| Compound | CC50 at 24 h (MTT reduction; rat) [µM] | CC50 at 24 h (Intracellular ATP levels; rat) [µM] | Predicted Ctox (H4IIE cells) [µM] | solubility [1, 3] [µM] | % Control (Compound + CSA) (P-glycoprotein (PgP); [4]) [%] | % Control (Compound) (P-glycoprotein (PgP); [5]) [%] | solubility [1, 6] [µM] | solubility [1, 7] [µM] | % Difference (P-glycoprotein (PgP); H4IIE 24 HR) [%] | also measured |
| --- | --- | --- | --- | --- | --- | --- | --- | --- | --- | --- |
| COc1cccc2c1C(=O)c1c(O)c3c(c(O)c1C2=O)C[C@@](O)(C(C)=O)C[C@@H]3O[C@H]1C[C@H](N)[C@H](O)[C@H](C)O1 [DAUNORUBICIN, daunorubicin] | 6 | 9 | 3 | – | – | – | – | – | – | solubility ([1]; plasma or biological fluid, kinetic from dmso stock, dosing medium with 20% serum, 37° C., CM 24 HR, read-out: Highest Soluble Concentration Tested): 100 µM (≈ 52.8 µg/mL); % Control (Compound + CSA) (P-glycoprotein (PgP)): 5.5%; % Control (Compound) (P-glycoprotein (PgP)): 9.3% |
| C=C(C)[C@H]1Cc2c(ccc3c2O[C@@H]2COc4cc(OC)c(OC)cc4[C@@H]2C3=O)O1 [ROTENONE, Rotenone] | – | – | 0.03 | 100 (≈ 39.4 µg/mL) | 0.0 | 0.0 | – | – | – | CC50 at 24 h (MTT reduction; rat cardiomyocytes (CM), 24 HR exposure, read-out: MTT TC50): 33 µM; CC50 at 24 h (Intracellular ATP levels; rat cardiomyocytes (CM), 24 HR exposure, read-out: ATP TC50): 8 µM; solubility ([1]; 37 °C, plasma or biological fluid, kinetic from dmso stock, culture media containing 20% serum, NRK 6 HR, read-out: Highest Soluble Concentration): 10 µM (≈ 3.94 µg/mL); solubility ([1]; 37 °C, plasma or biological fluid, kinetic from dmso stock, culture media containing 20% serum, NRK 24 HR, read-out: Highest Soluble Concentration): 10 µM (≈ 3.94 µg/mL); solubility [1, 2]: 100 µM (≈ 39.4 µg/mL); solubility ([1]; 37 °C, plasma or biological fluid, kinetic from dmso stock, dosing medium, 37° C., C32 24 HR, read-out: Highest Soluble Concentration): 10 µM (≈ 3.94 µg/mL); solubility ([1]; 37 °C, plasma or biological fluid, kinetic from dmso stock, dosing medium, 37° C., HUVEC 24 HR, read-out: Highest Soluble Concentration): 10 µM (≈ 3.94 µg/mL); solubility ([1]; 37 °C, plasma or biological fluid, kinetic from dmso stock, dosing medium, 37° C., NHEM 24 HR, read-out: Highest Soluble Concentration): 100 µM (≈ 39.4 µg/mL); solubility ([1]; 37 °C, plasma or biological fluid, kinetic from dmso stock, dosing medium, 37° C., SK-MEL28 24 HR, run #2, read-out: Highest Soluble Concentration): 100 µM (≈ 39.4 µg/mL); solubility ([1]; 37 °C, plasma or biological fluid, kinetic from dmso stock, dosing medium, 37° C., SK-MEL28 24 HR, read-out: Highest Soluble Concentration): 10 µM (≈ 3.94 µg/mL); solubility ([1]; 37 °C, plasma or biological fluid, kinetic from dmso stock, dosing medium, 37° C., SK-MEL28 72 HR, run #2, read-out: Highest Soluble Concentration): 100 µM (≈ 39.4 µg/mL); solubility ([1]; 37 °C, plasma or biological fluid, kinetic from dmso stock, dosing medium, 37° C., human hepatocytes 24 HR, read-out: Highest Soluble Concentration): 10 µM (≈ 3.94 µg/mL) |
| CC(=O)[C@]1(O)Cc2c(O)c3c(c(O)c2[C@@H](O[C@H]2C[C@H](N)[C@H](O)[C@H](C)O2)C1)C(=O)c1ccccc1C3=O [IDARUBICIN, idarubicin] | < 1 | 2 | 1 | – | 0.0 | 0.8 | – | – | – | solubility ([1]; dosing (complete culture) medium with 20% serum, plasma or biological fluid, kinetic from dmso stock, dosing medium with 20% serum, 37° C., CM 24 HR, read-out: Highest Soluble Concentration Tested): 20 µM (≈ 9.95 µg/mL) |
| O=C1Nc2ccc(Cl)cc2[C@@](C#CC2CC2)(C(F)(F)F)O1 [EFAVIRENZ, efavirenz] | 79 | 75 | 58 | – | 70.1 | 89.0 | 300 (≈ 94.7 µg/mL) | 300 (≈ 94.7 µg/mL) | 21.3 | – |
| COc1cccc2c1C(=O)c1c(O)c3c(c(O)c1C2=O)C[C@@](O)(C(=O)CO)C[C@@H]3O[C@H]1C[C@H](N)[C@@H](O)[C@H](C)O1 [EPIRUBICIN, epirubicin] | 16 | 19 | 8 | 100 (≈ 54.4 µg/mL) | 11.8 | 59.7 | 300 (≈ 163 µg/mL) | – | 80.3 | – |
| COc1cccc2c1C(=O)c1c(O)c3c(c(O)c1C2=O)C[C@@](O)(C(=O)CO)C[C@@H]3O[C@H]1C[C@H](N)[C@H](O)[C@H](C)O1 [ADRIAMYCIN, Adriamycin] | 1 | 6 | 1 | 100 (≈ 54.4 µg/mL) | 0.0 | 8.0 | – | – | 76.9 | CC50 at 1 h (MTT reduction; rat): > 300 µM; CC50 at 3 h (MTT reduction; rat): 41 µM; CC50 at 6 h (MTT reduction; rat): 18 µM; CC50 at 1 h (Intracellular ATP levels; rat): > 300 µM; CC50 at 3 h (Intracellular ATP levels; rat): 62 µM; CC50 at 6 h (Intracellular ATP levels; rat): 29 µM; Predicted Ctox (H4IIE cells; listed as DOXORUBICIN): 7 µM; solubility ([1]; 37 °C, plasma or biological fluid, kinetic from dmso stock, dosing medium with 20% serum, 37° C., CM 1 HR, read-out: Highest Soluble Concentration Tested): 100 µM (≈ 54.4 µg/mL); solubility ([1]; 37 °C, plasma or biological fluid, kinetic from dmso stock, dosing medium with 20% serum, 37° C., CM 3 HR, read-out: Highest Soluble Concentration Tested): 100 µM (≈ 54.4 µg/mL); solubility ([1]; 37 °C, plasma or biological fluid, kinetic from dmso stock, dosing medium with 20% serum, 37° C., CM 6 HR, read-out: Highest Soluble Concentration Tested): 100 µM (≈ 54.4 µg/mL); solubility [1, 2]: 100 µM (≈ 54.4 µg/mL); solubility ([1]; dosing medium with 20% serum, 37° C., H4IIE 24 HR, listed as DOXORUBICIN, read-out: Highest Soluble Concentration Tested): 300 µM (≈ 163 µg/mL); % Control (Compound + CSA) (P-glycoprotein (PgP); H4IIE 24 HR, MTT, 50 μM, with cyclosporin A, listed as DOXORUBICIN): 13.7%; % Control (Compound) (P-glycoprotein (PgP); H4IIE 24 HR, MTT, 50 μM, without CSA, listed as DOXORUBICIN): 59.3% |
| O=C1c2c(O)ccc(O)c2C(=O)c2c(NCCNCCO)ccc(NCCNCCO)c21 [MITOXANTRONE, mitoxantrone] | 1 | 2 | 11 | – | 10.4 | 69.9 | 300 (≈ 133 µg/mL) | 300 (≈ 133 µg/mL) | 85.1 | – |
| Nc1nc(NC2CC2)c2ncn([C@H]3C=C[C@@H](CO)C3)c2n1 [ABACAVIR, abacavir] | > 300 | 165 | 65 | – | 104.8 | 97.6 | 300 (≈ 85.9 µg/mL) | 300 (≈ 85.9 µg/mL) | – | – |
